Measurements reported in patent publication US4373094A, “Anthracycline derivatives” (Sanraku-Ocean Co., Ltd., priority 1980, dated 1983).
Values after ≈ are worked out from the molar mass of the structure shown.

Key:
[1] = system: mouse leukemia L1210 cells; assay: Growth inhibition of cultured mouse leukemia L1210 cells (living cells counted); type: cell-based; conditions: for IC50: Mus musculus, L1210, L1210 cells, read-out: 50% Inhibitory concentration, Growth inhibition after 24 hours; for antitumor effect on L1210 leukemia cells: in words
Experimental: The L1210 cells were cultivated at 37° C. overnight and transferred to RPMI (Roswell Park Memorial Institute) 1640 medium containing 20% calf serum at their exponential growth phase so as to give a cell concentration of 4×10^4 cells/ml. The compounds of the present invention were added to the medium at a concentration of 0.02-0.5 μg/ml. […]
(§1) Independently of the above-mentioned experiment, the compounds of the present invention were added to an about 5×10^5 cells/ml L1210 cell suspension in RPMI 1640 medium containing 10% calf serum at a concentration of 0.02-2.5 μg/ml. After 15 minutes, ^14 C-uridine (0.05 μCi/ml) or ^14 C-thymidine (0.05 μCi/ml) was added to the suspension and pulse-labeling was carried out at 37° C. for 60 minutes. The reaction was stopped by addition of a cold 10% trichloroacetic acid solution and an acid-insoluble fraction was precipitated. The precipitate was washed with a cold 5% trichloroacetic acid and the radioactivity was measured.

[2] = system: L1210 cells; assay: Inhibition of DNA synthesis (14C-thymidine incorporation) in L1210 cells; type: cell-based, mouse; conditions: RPMI 1640 medium containing 10% calf serum, pulse-labeling 37° C. for 60 minutes; for IC50: Mus musculus, 1 h, read-out: 50% Inhibitory concentration, 14C-Thymidine (Inhibition of DNA synthesis)
Experimental: as §1

[3] = system: L1210 cells; assay: Inhibition of RNA synthesis (14C-uridine incorporation) in L1210 cells; type: cell-based, mouse; conditions: RPMI 1640 medium containing 10% calf serum, pulse-labeling 37° C. for 60 minutes; for IC50: Mus musculus, L1210, 1 h, read-out: 50% Inhibitory concentration, 14C-Uridine (Inhibition of RNA synthesis)
Experimental: as §1

[4] = Solubility in solvents; type: physicochemical; conditions: for Solubilities: slightly soluble: slightly soluble solvents; for Solubilities: soluble: soluble solvents
[5] = RPMI 1640 medium containing 20% calf serum, 37° C., head: after 24 hours (text: 3 days)

Compound	IC50 [1, 5] [µg/mL]	IC50 [2] [µg/mL]	IC50 [3] [µg/mL]	antitumor effect on L1210 leukemia cells [1]	Solubilities: slightly soluble [4]	Solubilities: soluble [4]	50% Inhibitory concentration, Growth inhibition after 24 hours ([1]; L1210 cells, RPMI 1640 medium containing 20% calf serum, 37° C., head: after 24 hours (text: 3 days)) [µg/mL]	50% Inhibitory concentration, 14C-Thymidine (Inhibition of DNA synthesis) [2] [µg/mL]	50% Inhibitory concentration, 14C-Uridine (Inhibition of RNA synthesis) [3] [µg/mL]
CCC1(O)CC(OC2CC(N(C)C)C(OC3CC(O)C(OC4CCC(=O)C(C)O4)C(C)O3)C(C)O2)c2c(cc3c(c2O)C(=O)c2c(O)cc(O)cc2C3=O)C1C(=O)OC (stereo not shown) [2-hydroxy-aclacinomycin A, reference compound]	0.15 (≈ 0.181 µM)	0.9 (≈ 1.09 µM)	0.14 (≈ 0.169 µM)	–	–	–	–	–	–
CCC1(O)CC(OC2CC(N(C)C)C(OC3CC(O)C(OC4CCC(O)C(C)O4)C(C)O3)C(C)O2)c2c(cc3c(c2O)C(=O)c2c(O)cc(O)cc2C3=O)C1C(=O)OC (stereo not shown) [2-hydroxy-aclacinomycin M]	0.08 (≈ 0.0964 µM)	1.2 (≈ 1.45 µM)	0.1 (≈ 0.12 µM)	have an antitumor effect on L1210 leukemia cells	slightly soluble in water, ether and n-hexane	soluble in acidic water, methanol, ethanol, n-butanol, acetone, ethyl acetate, chloroform, benzene, toluene, dimethylsulfoxide and methyl cellosolve	–	–	–
CCC1(O)CC(OC2CC(N(C)C)C(OC3CC(O)C(OC4CCC(O)C(C)O4)C(C)O3)C(C)O2)c2c(cc3c(c2O)C(=O)c2c(O)cc(O)cc2C3=O)C1C(=O)OC (stereo not shown) [2-hydroxy-aclacinomycin N]	–	–	–	have an antitumor effect on L1210 leukemia cells	slightly soluble in water, ether and n-hexane	soluble in acidic water, methanol, ethanol, n-butanol, acetone, ethyl acetate, chloroform, benzene, toluene, dimethylsulfoxide and methyl cellosolve	0.095	1.2	0.18
CCC1(O)CC(OC2CC(N(C)C)C(OC3CC(O)C(O)C(C)O3)C(C)O2)c2c(cc3c(c2O)C(=O)c2c(O)cc(O)cc2C3=O)C1C(=O)OC (stereo not shown) [2-hydroxy-aclacinomycin S]	0.7 (≈ 0.978 µM)	–	1.3 (≈ 1.82 µM)	have an antitumor effect on L1210 leukemia cells	slightly soluble in water, ether and n-hexane	soluble in acidic water, methanol, ethanol, n-butanol, acetone, ethyl acetate, chloroform, benzene, toluene, dimethylsulfoxide and methyl cellosolve	–	–	–
CCC1(O)CC(OC2CC(N(C)C)C(O)C(C)O2)c2c(cc3c(c2O)C(=O)c2c(O)cc(O)cc2C3=O)C1C(=O)OC (stereo not shown) [2-hydroxy-aclacinomycin T]	0.46 (≈ 0.786 µM)	–	1 (≈ 1.71 µM)	have an antitumor effect on L1210 leukemia cells	slightly soluble in water, ether and n-hexane	soluble in acidic water, methanol, ethanol, n-butanol, acetone, ethyl acetate, chloroform, benzene, toluene, dimethylsulfoxide and methyl cellosolve	–	–	–
